Laboratory results: patent publication US12409183B2, “Method of using iloprost for treating frostbite” (BTG INTERNATIONAL INC., priority 2023, dated 2025)
Like-named read-outs stand apart in the source and are kept apart here.

Legend:
severe frostbite [1] = experiment: systematic literature review and meta-analysis of amputation rates in severe frostbite; type: in vivo, human
Protocol: Frostbite is an injury caused by exposure of tissue to freezing temperatures. Severe frostbite may result in amputation leading to considerable morbidity. The objective was to identify and synthesize, via systematic literature review and meta-analysis (MA), evidence published on patient-level historical amputation rates in adults with severe frostbite treated with and without iloprost.
Methods: The literature review was conducted using Preferred Reporting Items for Systematic Reviews and Meta-Analyses (PRISMA) guidelines. It identified English-language articles published from Jan. 1, 2000 to Jul. 31, 2022 reporting amputation rates associated with iloprost and standard of care (SoC) treatments in severe frostbite. Study designs of interest were clinical trials (randomized and single arm), observational studies, and case series with at least 10 patients. MAs of proportions of patients with amputation were conducted. The published studies considered for the MA include:
Determination of Risk of Amputation: Table 1 discloses the historical amputation rates in severe frostbite patients. The studies listed in Table 1 was the basis of MA for determining the historical risk of amputation.
Sensitivity analyses reflect several ways of deriving the data (amputation rate for grade 3-4 frostbite) from the supplemental table in Cauchy 2011 (Cauchy et al., 2011).
Efficacy Proportion of Digits with Amputation: Data from 2 studies reporting the proportion of digits with amputations after receiving iloprost versus SoC for Grade 3/4 frostbite were included in the meta-analysis.

[2] = IV bag solution stability of fully diluted ready-to-use iloprost (HPLC); type: physicochemical; details: condition ia, 25° C./60% RH study; Table 1A
Protocol: Iloprost 100 μg/mL injection product is administered to patients by IV bag infusion over a period of six hours. The fully diluted ready to use iloprost is prepared in pharmacy cleanroom using sterile preparation standards (USP Chapter <797>) by pharmacy trained and licensed staff. The fully diluted ready to use drug product may be prepared several hours ahead of treatment with storage at ambient conditions or several days ahead of treatment with storage at refrigerated (2-8° C.) conditions. […] The bags are then manually mixed gently to provide a uniform solution. Administration IV bags were prepared and stored at several conditions with routine sampling for assay testing for stability under i) 25° C./60% RH, ii) 5° C. for 5 days to 25° C./60% RH, iii) 5° C. for 8 days to 25° C./60% RH. […] Sampling time for condition […], and 24 h Sampling time for ib): 8 h, 12 h, 48 h, and 96 h Sampling time for condition ii): 5 days (at the end of storage in 2-8° C. stability chamber), 5 days and 8 h, and 5 days and 12 h Sampling time for condition iii): 8 days (at the end of storage in 2-8° C. stability chamber), 8 days and 8 h, and 8 days and 12 h Sample Analysis: Samples were analyzed by HPLC using a validated method (validation protocol not shown). […] The % Initial (initial concentration) of each stored sample was determined per the equation below: […]

[3] = iloprost infusion; ratio x:1; cited from earlier work
severe frostbite [4] = details: cited from earlier work
[5] = Cauchy 2011, iloprost alone and iloprost+tPA combined (n=177)

CC#CCC(C)[C@H](O)/C=C/[C@@H]1[C@H]2C/C(=C/CCCC(=O)O)C[C@H]2C[C@H]1O (stereo partly drawn) [iloprost, (5E)-5-[(3aS,4R,5R,6aS)-5-hydroxy-4-[(E,3S)-3-hydroxy-4-methyloct-1-en-6-ynyl]-3,3a,4,5,6,6a-hexahydro-1H-pentalen-2-ylidene]pentanoic acid]
odds ratio (OR) of digit amputation, iloprost+tPA patients of Cauchy 2011 added (severe frostbite [1]; iloprost alone and iloprost plus tPA vs SoC, 95% CI: 0.001, 1.12, p=0.057, FIG. 4): 0.034
odds ratio (OR) of digit amputation, base-case (severe frostbite [1]; iloprost alone vs SoC, 2 studies meta-analyzed, 95% CI: 0.002-0.966, p=0.047, FIG. 3): 0.047
proportion of patients with amputation, pooled arm-level data (severe frostbite [1]; meta-analysis, random effects, 95% CI: 0-45%, FIG. 2): 15%
advantage for iloprost over SoC (reduction in amputation), base-case (severe frostbite [1]; studies with severe frostbite, no alprostadil, 95% CI: 6-73%, p=0.02): 39%
% initial results for all of the IV bag preparations (range) [2]: 94.2-94.9%
ratio of antiaggregatory:vasodilatory potency in vivo [3]: 2-7
Amputation Rate: patients considered likely to receive amputation (severe frostbite [4]; Cauchy 2011, open label RCT, severe (grades 3 or 4) frostbite, with SoC after rewarming, radiotracer anomaly in technetium scintigraphy after 8 days of treatment): 0 patients
digits with amputation (severe frostbite [4]; Cauchy 2011, Grade 3/4 frostbite, iloprost alone): zero out of 78
digit amputations (severe frostbite [4]; [5]): 1.3%
number of digit amputations (severe frostbite [4]; [5]): 3
digits with amputation (severe frostbite [4]; Crooks 2022, Grade 3-4 frostbite, minority of iloprost patients also received tPA (5 of 26)): 31.1%
patients with amputation (severe frostbite [4]; Poole 2021, iloprost plus SoC, with or without alteplase and heparin): 33%
safety events associated with iloprost (severe frostbite [4]; three iloprost frostbite studies, headache, flushing, palpitations/tachycardia, nausea and vomiting): generally mild
